Measured values reported in patent publication US20250002448A1, “ALLOSTERIC MODULATORS OF NICOTINIC ACETYLCHOLINE RECEPTORS” (MERCK SHARP & DOHME LLC, priority 2021, published 2025).
Read-outs that look alike come from different tables or passages of the source.

Molecular target: T1, human a7 nAChR (Homo sapiens, UniProt P36544)
T1 construct: catalogue number not given
Test: automated patch-clamp electrophysiology functional assay (Assay A), IonFlux HT
Format: cell-based
Details: HEK cell line stably expressing human RIC-3 and human a7, whole-cell population patch, 40 μM acetylcholine
Procedure: The a7 nAChR positive allosteric modulator (PAM) activity of the present compounds may be tested using assays known in the art. The a7 nAChR PAMs described herein have activities in an automated patch-clamp electrophysiology functional assay as described in the examples. The assay was performed using the lonFlux HT in a whole-cell, population patch configuration. See Golden et al. Assay Drug Dev. Technol. (2011) 9:608-619. The compounds were assessed for their ability to modulate the function of the human a7 nAChR stably expressed in a HEK cell line both in the presence, and in the absence of the natural a7 agonist acetylcholine. By performing a series of such measurements at different concentrations, the effective concentration of the a7 nAChR PAMs (EC50) was determined. See Spencer et al. Assay Drug Dev. Technol. (2012) 10:313-324.
Direct activation of a7 (agonism), and potentiation of acetylcholine-evoked a7 currents was determined as follows:
Automated patch-clamp electrophysiology was performed using the IonFlux HT (Fluxion Biosciences Inc., San Francisco, CA) in the whole-cell, population patch configuration. Test compounds were assessed for their ability to modulate the function of the a7 nicotinic acetylcholine receptor both in the presence, and in the absence of the natural a7 agonist acetylcholine. A HEK cell line stably expressing both human RIC-3 and human a7 (PrecisION hnAChR a7/RIC-3. Eurofins Pharma, St. Charles, MO) was cultured in 175 cm^2 triple-layer tissue culture flasks to no more than 90% confluency in DMEM/F-12 growth media supplemented with 10% heat-inactivated fetal bovine serum, 1% non-essential amino acids. 0.625 μg/mL Puromycin, and 400 μg/mL Geneticin. Immediately prior to assay, cells were detached by first aspirating growth media, rinsing with Dulbecco's phosphate buffered saline, and then adding 10 mL of Accutase (Innovative Cell Technologies, San Diego, CA) to the flask and then incubating at 37° C. for 5 minutes. Detached cells were then recovered by the addition of 40 mL of CHO-serum-free media supplemented with 25 mM HEPES, and rocked gently in a 50 ml conical tube for 20 minutes prior to patch-clamp assay. After recovery, cells were pelleted by centrifugation at 1.000 RPM for 1 minute in a compact bench top centrifuge: recovery media was aspirated and cells were resuspended in external recording solution (150 mM NaCl, 5 mM KCl, 2 mM CaCl2), 1 mM MgCl2, 10 mM HEPES, 12 mM dextrose) to a density of 5.0×10^6 cells/mL. The cell suspension was added to the cell inlet wells on an IonFlux HT population patch plate which had previously been rinsed and primed with deionized H2O. Test compounds were serially diluted in DMSO and then resuspended to the final test concentration in external recording solution, with, or without 40 μM acetylcholine added to the external recording solution: test compounds were then transferred to the IonFlux HT population patch plate. Internal recording solution (110 mM TrisPO4, 28 mM TrisBase, 0.1 mM CaCl2), 2 mM MgCl2, 11 mM EGTA, 4 mM MgATP) was added to the internal recording solution inlet wells on the IonFlux HT patch plate previously loaded with cells and test compounds, and the plate loaded into the lonFlux HT instrument. A protocol was executed on the IonFlux HT to trap the cells, break into the cells, and establish the whole-cell recording configuration: cells were voltage-clamped at a holding potential of −60 mV for the duration of the experiment, all experiments were conducted at room temperature, and the IonFlux HT injection pressure was 8 psi for solution applications. Upon establishing the whole-cell configuration, external recording solution was perfused into the recording chambers for 120 seconds and then 40 μM acetylcholine was applied for 1 second and immediately washed off with external recording solution for 60 seconds. […]

T1 sequence (P36544 23-502): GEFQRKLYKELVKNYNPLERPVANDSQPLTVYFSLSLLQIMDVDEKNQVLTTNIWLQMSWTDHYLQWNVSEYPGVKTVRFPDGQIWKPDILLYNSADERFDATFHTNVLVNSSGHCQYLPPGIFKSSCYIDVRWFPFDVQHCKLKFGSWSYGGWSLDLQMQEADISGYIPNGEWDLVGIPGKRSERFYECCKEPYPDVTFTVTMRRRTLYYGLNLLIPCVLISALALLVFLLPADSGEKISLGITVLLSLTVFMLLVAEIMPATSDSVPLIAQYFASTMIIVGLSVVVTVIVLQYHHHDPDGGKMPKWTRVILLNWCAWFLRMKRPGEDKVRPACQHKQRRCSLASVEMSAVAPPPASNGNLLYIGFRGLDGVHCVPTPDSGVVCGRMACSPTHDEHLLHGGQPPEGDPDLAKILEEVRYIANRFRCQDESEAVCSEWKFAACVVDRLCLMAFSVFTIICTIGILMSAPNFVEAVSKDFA

Structure (SMILES)	EC50 (read-out: a7 nAChR EC50) [nM]	EC50 (read-out: α7 nAChR Potency) [nM]
CCOc1ccc([C@H](COC)NC(=O)C2CC23CCc2ccccc23)cc1 (mixture of isomers) [Example 1, N-[(1R)-1-(4-Ethoxyphenyl)-2-Methoxy-Ethyl[-2′,3′-Dihydrospiro]Cyclopropane-1,1′-Indene]-2-Carboxamide, Mixture a]	4500	500 to 5000
CCOc1ccc([C@H](COC)NC(=O)C2CC23CCc2ccccc23)cc1 (mixture of isomers) [Example 2, N-[(1R)-1-(4-Ethoxyphenyl)-2-Methoxy-Ethyl]-2′,3′-Dihydrospiro[Cyclopropane-1,1′-Indene]-2-Carboxamide, Mixture B]	420	100 to 500
O=C(NC1(c2ccc(F)cc2)COC1)C1CC12CCc1ccccc12 (racemic) [Example A1, N-[3-(4-Fluorophenyl)oxetan-3-yl]-2′, 3′-dihydrospiro[cyclopropane-1,1′-indene]-2-carboxamide]	3200	500 to 5000
COc1ccc(C2(NC(=O)[C@@H]3C[C@]34COc3ccc(F)cc34)CC2)cn1 (relative stereo) [Example A16, cis-5-Fluoro-N-[1-(6-methoxypyridin-3-yl)cyclopropyl]-2H-spiro[1-benzofuran-3,1′-cyclopropane]-2′-carboxamide]		500 to 5000
CCOc1ccc([C@H](COC)NC(=O)C2CC23CCc2ccc(F)cc23)cc1 (single isomer, unassigned) [Example A2]	1600	500 to 5000
CCOc1ccc([C@H](COC)NC(=O)C2CC23CCc2ccc(F)cc23)cc1 (single isomer, unassigned) [Example A3]	700	500 to 5000
CCOc1ccc([C@H](COC)NC(=O)C2CC23CCCc2ccccc23)cc1 (single isomer, unassigned) [Example B1]	740	500 to 5000
CCOc1ccc([C@H](COC)NC(=O)C2CC23CCc2cc(F)ccc23)cc1 (single isomer, unassigned; diastereomer b) [Example 4]	590	500 to 5000
CCOc1ccc([C@H](COC)NC(=O)C2CC23COc2ccc(F)cc23)cc1 (single isomer, unassigned; diastereomer d) [Example 5]	480	100 to 500
CCOc1ccc([C@H](COC)NC(=O)C2CC23COc2ccc(F)cc23)cc1 (stereo in doubt) [Example A10, cis-N-[(1R)-1-(4-Ethoxyphenyl)-2-methoxyethyl]-5-fluoro-2H-spiro[I-benzofuran-3,1′-cyclopropane]-2′-carboxamide]		500 to 5000
CCOc1ccc([C@@H](NC(=O)C2CC23COc2ccc(F)cc23)C(F)F)cn1 (stereo in doubt) [Example A12, cis-N-[(1R)-1-(6-Ethoxypyridin-3-yl)-2,2-difluoroethyl]-5-fluoro-2H-spiro[1-benzofuran-3,1′-cyclopropane]-2′-carboxamide]	3000	500 to 5000
CCOc1ccc([C@H](CF)NC(=O)C2CC23COc2ccc(F)cc23)cn1 (stereo in doubt) [Example A13, cis-N-[(1R)-1-(6-Ethoxypyridin-3-yl)-2-fluoroethyl]-5-fluoro-2H-spiro[1-benzofuran-3,1′-cyclopropane]-2′-carboxamide]	790	500 to 5000
O=C(N[C@@H](C(F)F)C1CCCCC1)C1CC12COc1ccc(F)cc12 (stereo in doubt) [Example A14, cis-N-[(1R)-1-Cyclohexyl-2,2-difluoroethyl]-5-fluoro-2H-spiro[1-benzofuran-3,1′-cyclopropane]-2′-carboxamide]		500 to 5000
O=C(N[C@@H](CO)C1CCCCC1)C1CC12COc1ccc(F)cc12 (stereo in doubt) [Example A15, cis-N-[ (1R)-1-Cyclohexyl-2-hydroxyethyl]-5-fluoro-2H-spiro[1-benzofuran-3,1′-cyclopropane]-2′-carboxamide]	770	500 to 5000
CCOc1ccc([C@H](COC)NC(=O)[C@@H]2C[C@]23CCc2ccccc23)cc1 [Example 3, (1R,2R)-N-[ (1R)-1-(4-Ethoxyphenyl)-2-Methoxy-Ethyl]-2′,3′-Dihydrospiro[Cyclopropane-1,1′-Indene]-2-Carboxamide]	690	500 to 5000
O=C(N[C@@H](CO)C1CCCCC1)C1CC12CCc1ccc(F)cc12 (stereo partly drawn) [Example A4, N-[(1R)-1-Cyclohexyl-2-hydroxyethyl]-6′-fluoro-2′, 3′-dihydrospiro[cyclopropane-1,1′-indene]-2-carboxamide]	1200	500 to 5000
CCOc1ccc([C@H](CO)NC(=O)C2CC23CCc2ccc(F)cc23)cn1 (stereo partly drawn) [Example A5, N-[(1R)-1-(6-Ethoxypyridin-3-yl)-2-hydroxyethyl]-6′-fluoro-2′, 3′-dihydrospiro[cyclopropane-1,1′-indene]-2-carboxamide]	1400	500 to 5000
O=C(NC1(c2ccc(F)cc2)COC1)C1CC12CCc1ccc(F)cc12 (centres unmarked) [Example A6]		500 to 5000
O=C(N[C@@H](C(F)F)C1CCCCC1)C1CC12CCc1ccc(F)cc12 (stereo partly drawn) [Example A7, N-[(1R)-1-Cyclohexyl-2,2-difluoroethyl]-6′-fluoro-2′, 3′-dihydrospiro[cyclopropane-1,1′-indene]-2-carboxamide]		500 to 5000
O=C(N[C@@H](CO)C1CCCCC1)C1CC12COc1ccccc12 (some centres unmarked) [Example A8]	630	500 to 5000
O=C(NC1(c2ccc(F)cc2)COC1)C1CC12COc1ccccc12 (centres unmarked) [Example A9, N-[3-(4-Fluorophenyl)oxetan-3-yl]-2H-spiro[1-benzofuran-3,1′-cyclopropane]-2′-carboxamide]	1100	500 to 5000
CCOc1ccc(C(CO)NC(=O)C2CC23COc2ccc(F)cc23)cn1 [Example A11, cis-N-[ (1R)-1-(6-Ethoxypyridin-3-yl)-2-hydroxyethyl]-5-fluoro-2H-spiro[1-benzofuran-3,1′-cyclopropane]-2′-carboxamide]	5800	5000 to 50000
COc1cc(C2(NC(=O)C3CC34COc3ccc(F)cc34)CC2)ccn1 (stereo not drawn) [Example A17, cis-S-Fluoro-N-[1-(2-methoxypyridin-4-vl)cyclopropyl]-2H-spiro[1-benzofuran-3,1′-cyclopropane]-2′-carboxamide]	2300	500 to 5000
